From ChEMBL document CHEMBL5291721, “A preclinical secondary pharmacology resource illuminates target-adverse drug reaction associations of marketed drugs” (Nat Commun, 2023)

Legend:
Motilin receptor = Motilin receptor (Homo sapiens, UniProt O43193)
[1] = target: T1, Muscarinic acetylcholine receptor M1 (Homo sapiens, UniProt P11229); format: functional
T1 sequence (P11229 whole entry): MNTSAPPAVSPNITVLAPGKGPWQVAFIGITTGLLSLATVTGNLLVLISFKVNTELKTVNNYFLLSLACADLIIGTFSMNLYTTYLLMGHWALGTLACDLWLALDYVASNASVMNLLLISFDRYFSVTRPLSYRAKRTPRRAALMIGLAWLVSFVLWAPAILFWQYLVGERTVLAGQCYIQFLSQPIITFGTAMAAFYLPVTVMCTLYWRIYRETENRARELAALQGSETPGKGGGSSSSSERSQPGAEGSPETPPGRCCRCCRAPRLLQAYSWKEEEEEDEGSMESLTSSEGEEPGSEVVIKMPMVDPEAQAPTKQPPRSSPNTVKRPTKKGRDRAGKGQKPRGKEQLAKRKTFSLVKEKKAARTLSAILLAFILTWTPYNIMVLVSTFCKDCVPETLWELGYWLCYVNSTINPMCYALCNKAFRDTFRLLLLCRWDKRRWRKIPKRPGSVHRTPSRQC

Adenosine receptor A1 = target: T2, Adenosine receptor A1 (Homo sapiens, UniProt P30542)
T2 sequence (P30542 whole entry): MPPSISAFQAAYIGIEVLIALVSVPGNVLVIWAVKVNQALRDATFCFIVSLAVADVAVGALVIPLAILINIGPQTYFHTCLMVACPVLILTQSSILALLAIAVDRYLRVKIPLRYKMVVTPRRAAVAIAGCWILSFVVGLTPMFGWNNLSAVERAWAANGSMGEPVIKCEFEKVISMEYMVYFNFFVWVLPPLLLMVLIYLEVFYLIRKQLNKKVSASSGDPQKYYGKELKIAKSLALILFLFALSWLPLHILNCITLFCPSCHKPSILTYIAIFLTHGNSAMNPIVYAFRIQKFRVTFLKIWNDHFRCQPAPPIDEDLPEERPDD

[2] = target: Muscarinic acetylcholine receptor M3 (Homo sapiens, UniProt P20309)
[3] = target: Sodium-dependent noradrenaline transporter (Homo sapiens, UniProt P23975)
Androgen receptor = target: T3, Androgen receptor (Homo sapiens, UniProt P10275)
T3 sequence (P10275 whole entry): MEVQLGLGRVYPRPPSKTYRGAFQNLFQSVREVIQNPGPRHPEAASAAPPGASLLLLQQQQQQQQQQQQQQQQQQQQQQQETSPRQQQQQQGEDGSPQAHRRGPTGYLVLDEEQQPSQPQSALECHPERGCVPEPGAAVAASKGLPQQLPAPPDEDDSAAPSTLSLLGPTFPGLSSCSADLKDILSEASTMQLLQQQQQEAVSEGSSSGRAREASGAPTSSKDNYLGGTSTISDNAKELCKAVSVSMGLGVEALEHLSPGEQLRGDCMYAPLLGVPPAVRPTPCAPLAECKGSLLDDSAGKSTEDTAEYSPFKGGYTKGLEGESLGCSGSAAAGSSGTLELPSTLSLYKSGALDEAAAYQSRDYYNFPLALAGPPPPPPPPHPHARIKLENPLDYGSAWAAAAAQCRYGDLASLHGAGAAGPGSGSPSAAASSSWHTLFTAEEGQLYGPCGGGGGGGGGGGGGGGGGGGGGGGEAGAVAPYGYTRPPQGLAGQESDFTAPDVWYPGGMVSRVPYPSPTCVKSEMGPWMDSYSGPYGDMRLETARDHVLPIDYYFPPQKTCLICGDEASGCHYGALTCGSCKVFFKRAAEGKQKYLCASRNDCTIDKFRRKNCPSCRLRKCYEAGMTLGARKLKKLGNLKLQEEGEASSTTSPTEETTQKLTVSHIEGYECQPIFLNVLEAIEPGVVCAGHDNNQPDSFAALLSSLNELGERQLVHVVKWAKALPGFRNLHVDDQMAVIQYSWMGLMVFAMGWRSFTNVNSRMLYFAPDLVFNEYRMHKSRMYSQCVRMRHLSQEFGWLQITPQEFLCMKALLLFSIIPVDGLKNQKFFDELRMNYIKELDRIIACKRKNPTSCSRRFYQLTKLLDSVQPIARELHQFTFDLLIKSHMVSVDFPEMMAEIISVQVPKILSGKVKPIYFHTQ

[4] = target: T4, Muscarinic acetylcholine receptor M2 (Homo sapiens, UniProt P08172); format: functional, cell-based
T4 sequence (P08172 whole entry): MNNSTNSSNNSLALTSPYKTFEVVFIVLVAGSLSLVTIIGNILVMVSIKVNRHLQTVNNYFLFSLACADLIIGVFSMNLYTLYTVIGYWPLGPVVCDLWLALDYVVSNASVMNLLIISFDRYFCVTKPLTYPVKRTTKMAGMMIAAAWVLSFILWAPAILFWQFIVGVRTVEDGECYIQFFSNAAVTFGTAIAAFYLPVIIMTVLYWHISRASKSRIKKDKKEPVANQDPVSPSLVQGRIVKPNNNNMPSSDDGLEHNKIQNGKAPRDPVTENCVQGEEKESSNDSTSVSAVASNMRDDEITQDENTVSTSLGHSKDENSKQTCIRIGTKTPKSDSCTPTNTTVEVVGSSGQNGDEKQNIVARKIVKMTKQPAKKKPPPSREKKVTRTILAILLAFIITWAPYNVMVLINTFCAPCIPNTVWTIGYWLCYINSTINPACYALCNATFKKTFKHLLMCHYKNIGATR

[5] = target: T5, 5-hydroxytryptamine receptor 2A (Homo sapiens, UniProt P28223); format: functional, cell-based
[6] = target: Beta-2 adrenergic receptor (Homo sapiens, UniProt P07550); format: functional, cell-based
[7] = target: T5, 5-hydroxytryptamine receptor 2A; format: functional, cell-based; remark: listed apart in the source
Further: assay procedure not described here.

Muscarinic acetylcholine receptor M3, sequence (P20309 whole entry): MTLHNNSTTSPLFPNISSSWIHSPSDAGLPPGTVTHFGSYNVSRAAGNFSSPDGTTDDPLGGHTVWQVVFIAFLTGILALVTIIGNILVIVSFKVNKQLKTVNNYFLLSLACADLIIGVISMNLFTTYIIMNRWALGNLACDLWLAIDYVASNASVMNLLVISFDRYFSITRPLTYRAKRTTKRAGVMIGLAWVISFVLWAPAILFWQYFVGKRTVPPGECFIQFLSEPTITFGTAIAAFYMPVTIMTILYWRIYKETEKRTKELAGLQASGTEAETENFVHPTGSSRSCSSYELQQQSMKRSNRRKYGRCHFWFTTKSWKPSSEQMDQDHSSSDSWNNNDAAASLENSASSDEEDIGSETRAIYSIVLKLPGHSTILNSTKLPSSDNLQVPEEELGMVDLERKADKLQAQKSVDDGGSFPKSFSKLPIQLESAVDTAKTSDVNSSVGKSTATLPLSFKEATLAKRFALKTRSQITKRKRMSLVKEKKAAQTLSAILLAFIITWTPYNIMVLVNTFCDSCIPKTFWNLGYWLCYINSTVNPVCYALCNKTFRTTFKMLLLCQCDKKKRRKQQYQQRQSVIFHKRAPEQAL
Sodium-dependent noradrenaline transporter, sequence (P23975 whole entry): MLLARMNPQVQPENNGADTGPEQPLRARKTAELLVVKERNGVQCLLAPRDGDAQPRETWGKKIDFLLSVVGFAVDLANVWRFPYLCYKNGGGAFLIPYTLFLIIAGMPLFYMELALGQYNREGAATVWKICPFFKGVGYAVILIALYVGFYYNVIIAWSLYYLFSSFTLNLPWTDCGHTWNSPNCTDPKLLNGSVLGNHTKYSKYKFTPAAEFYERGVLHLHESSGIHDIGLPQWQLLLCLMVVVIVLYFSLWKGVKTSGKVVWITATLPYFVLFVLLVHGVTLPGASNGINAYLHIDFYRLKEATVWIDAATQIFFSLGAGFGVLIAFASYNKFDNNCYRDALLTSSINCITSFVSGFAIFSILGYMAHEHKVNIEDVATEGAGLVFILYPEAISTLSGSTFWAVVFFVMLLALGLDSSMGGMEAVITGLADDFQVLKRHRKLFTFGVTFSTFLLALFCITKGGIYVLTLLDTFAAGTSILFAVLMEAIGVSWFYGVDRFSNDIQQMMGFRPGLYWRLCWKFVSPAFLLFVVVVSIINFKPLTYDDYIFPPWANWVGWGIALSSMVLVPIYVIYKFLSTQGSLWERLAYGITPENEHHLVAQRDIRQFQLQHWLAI
T5 sequence (P28223 whole entry): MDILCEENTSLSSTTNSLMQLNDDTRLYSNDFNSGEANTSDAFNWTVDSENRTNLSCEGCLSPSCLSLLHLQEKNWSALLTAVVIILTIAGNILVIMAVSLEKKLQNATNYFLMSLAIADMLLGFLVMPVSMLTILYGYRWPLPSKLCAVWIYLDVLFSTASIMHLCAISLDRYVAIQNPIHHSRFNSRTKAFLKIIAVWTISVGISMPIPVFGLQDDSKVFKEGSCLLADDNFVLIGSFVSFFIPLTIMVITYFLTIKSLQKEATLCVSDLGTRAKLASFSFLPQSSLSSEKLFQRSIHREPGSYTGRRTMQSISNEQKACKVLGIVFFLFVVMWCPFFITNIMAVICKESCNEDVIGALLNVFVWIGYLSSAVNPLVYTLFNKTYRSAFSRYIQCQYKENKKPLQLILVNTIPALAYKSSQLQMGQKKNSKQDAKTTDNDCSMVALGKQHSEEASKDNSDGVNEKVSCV
Motilin receptor, sequence (O43193 whole entry): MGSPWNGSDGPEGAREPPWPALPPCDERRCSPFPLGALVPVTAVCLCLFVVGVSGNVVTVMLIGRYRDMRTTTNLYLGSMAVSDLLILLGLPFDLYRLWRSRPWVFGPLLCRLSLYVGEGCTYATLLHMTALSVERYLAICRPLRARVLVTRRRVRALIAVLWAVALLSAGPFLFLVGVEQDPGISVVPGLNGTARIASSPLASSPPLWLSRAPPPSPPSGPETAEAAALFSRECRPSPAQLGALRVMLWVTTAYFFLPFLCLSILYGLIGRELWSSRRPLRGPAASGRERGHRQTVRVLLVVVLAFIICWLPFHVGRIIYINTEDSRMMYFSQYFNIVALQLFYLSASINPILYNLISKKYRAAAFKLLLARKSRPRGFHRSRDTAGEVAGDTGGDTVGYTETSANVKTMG
Beta-2 adrenergic receptor, sequence (P07550 whole entry): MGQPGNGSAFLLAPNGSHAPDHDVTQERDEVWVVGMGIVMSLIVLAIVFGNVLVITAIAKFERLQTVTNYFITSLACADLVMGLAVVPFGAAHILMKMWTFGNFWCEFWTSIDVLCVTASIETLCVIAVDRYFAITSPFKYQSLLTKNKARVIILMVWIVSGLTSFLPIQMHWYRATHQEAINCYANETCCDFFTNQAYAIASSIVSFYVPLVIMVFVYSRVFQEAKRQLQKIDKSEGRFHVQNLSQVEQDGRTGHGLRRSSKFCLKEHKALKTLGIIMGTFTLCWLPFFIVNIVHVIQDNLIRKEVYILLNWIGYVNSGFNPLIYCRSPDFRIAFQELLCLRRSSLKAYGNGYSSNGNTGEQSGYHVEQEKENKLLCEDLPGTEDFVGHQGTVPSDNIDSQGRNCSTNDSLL

Structure (SMILES) | AC50 (Motilin receptor) | AC50 [1] | AC50 (Adenosine receptor A1) | AC50 [2] | AC50 [3] | AC50 (Androgen receptor) | AC50 [4] | AC50 [5] | AC50 [6] | AC50 [7]
O=C(/C=C/c1cccc(S(=O)(=O)Nc2ccccc2)c1)NO [BELINOSTAT] | > 10 µM | > 10 µM | > 30 µM | > 30 µM | > 30 µM | > 30 µM |  |  |  | 
C[C@@H]1C[C@H]2[C@@H]3C[C@H](F)C4=CC(=O)C=C[C@]4(C)[C@@]3(F)[C@@H](O)C[C@]2(C)[C@@]1(OC(=O)c1ccco1)C(=O)SCF [FLUTICASONE FUROATE] | > 10 µM | > 10 µM | > 30 µM | > 30 µM | > 30 µM | 0.13 µM | > 10 µM |  |  | 
COc1cc(C)c2c(Oc3cccc(C(F)(F)F)c3)c(OC)cc(NC(C)CCCN)c2n1 (stereo not given) [TAFENOQUINE] |  |  | > 30 µM |  | 2.26 µM | > 30 µM |  |  |  | 
O=S1(=O)CCN(CN2CCS(=O)(=O)NC2)CN1 [TAUROLIDINE] |  | > 30 µM | > 30 µM | > 30 µM | > 30 µM | > 30 µM | > 30 µM | > 30 µM | > 30 µM | > 30 µM
